# Assay results taken from US12279615B2, “Wood preservative and method for producing same” (Koppers Performance Chemicals Inc., priority 2016, dated 2025).
# Assays:
# [1] = system: Postia placenta; assay: Laboratory soil-block decay resistance test, AWPA Standard E10-2015, treated southern pine sapwood cubes; format: cell-based; details: micronized penflufen
# Protocol: (§1) The synergism was determined using a modified method as described by Kull et al. (Applied Microbiology, 1961 (9): 538-541). The modified method is described as below: QA/Qa+QB/Qb=SI • Where: • Qa=concentration of substance A alone which controls a particular decay fungus • Qb=concentration of substance B alone which controls a particular decay fungus • QA=concentration of substance A in the concentration of the A and B mixture at which controls a particular decay fungus • QB=concentration of substance B in the concentration of the A and B mixture at which controls a particular decay fungus • SI=1 means additivity • SI>1 means antagonism • SI<1 means synergism
# (§2) Wood cubes measuring 19 mm×19 mm×19 mm were prepared from southern pine sapwood. One set of wood cubes were pressured treated with serial treating solutions containing penflufen fungicide. A second set of wood cubes were pressure treated with treating solutions containing the copper fungicide. A third set of wood cubes were pressure treated with treating solutions containing a mixture of the copper and penflufen. The treated wood samples were exposed to various fungi to conduct a laboratory decay resistance test following protocols as described in American Wood Protection Association Standard E10-2015. Before and after exposure to fungi, the wood samples were weighed to determine the weight percent loss. No weight loss means complete control of the fungal attack.
# (§3) Wood cubes measuring 19 mm×19 mm×19 mm were prepared from southern pine sapwood. The wood cubes were pressure treated with treating solutions containing micronized penflufen. The treated wood samples were exposed to various fungi to conduct a laboratory decay resistance test following protocols as described in American Wood Protection Association Standard E10-2015. Before and after exposure to fungi, the wood samples were weighed to determine the weight percent loss.
# [2] = system: Gloeophyllum trabeum; assay: as above; format: cell-based; details: micronized penflufen
# Protocol: as §1, §2, §3
# [3] = system: Fibroporia radiculosa; assay: as above; format: cell-based; details: micronized penflufen
# Protocol: as §1, §2, §3
# [4] = system: Coniophora puteana; assay: as above; format: cell-based; details: micronized penflufen
# Protocol: as §1, §2, §3
# [5] = Particle size of penflufen after milling with 1 mm zirconia; format: physicochemical; details: milled with 1 mm zirconia
# Description: The attainment of the injectable size, which generally requires both a d50 below 0.5 microns and a d98 less than three times the d50, was a surprising development. […] Milling a milling-resistant organic biocide, such as penflufen, with 1 mm zirconia provided a penflufen product with a d50 of 2 to 3 microns.
structure (smiles),measurement,setting,value
"Cc1nn(C)c(F)c1C(=O)Nc1ccccc1C(C)CC(C)C (stereo not drawn) [Penflufen, penflufen]",Mean Percent Weigh Loss of Treated Wood Cubes,[1]; Penflufen Retention 8 g/m^3,3.5%
same,Mean Percent Weigh Loss of Treated Wood Cubes,[1]; Penflufen Retention 12 g/m^3,1.9%
same,Mean Percent Weigh Loss of Treated Wood Cubes,[1]; Penflufen Retention 16 g/m^3,2.1%
same,Mean Percent Weigh Loss of Treated Wood Cubes,[1]; Penflufen Retention 24 g/m^3,1.2%
same,Mean Percent Weigh Loss of Treated Wood Cubes,[1]; Penflufen Retention 32 g/m^3,1.2%
same,Mean Percent Weigh Loss of Treated Wood Cubes,[1]; Penflufen Retention 48 g/m^3,1.1%
same,Mean Percent Weigh Loss of Treated Wood Cubes,[1]; Penflufen Retention 64 g/m^3,1.1%
same,Mean Percent Weigh Loss of Treated Wood Cubes,[1]; Penflufen Retention 80 g/m^3,1.3%
same,Mean Percent Weigh Loss of Treated Wood Cubes,[2]; Penflufen Retention 8 g/m^3,3.1%
same,Mean Percent Weigh Loss of Treated Wood Cubes,[2]; Penflufen Retention 12 g/m^3,2.9%
same,Mean Percent Weigh Loss of Treated Wood Cubes,[2]; Penflufen Retention 16 g/m^3,3.6%
same,Mean Percent Weigh Loss of Treated Wood Cubes,[2]; Penflufen Retention 24 g/m^3,3.0%
same,Mean Percent Weigh Loss of Treated Wood Cubes,[2]; Penflufen Retention 32 g/m^3,3.5%
same,Mean Percent Weigh Loss of Treated Wood Cubes,[2]; Penflufen Retention 48 g/m^3,3.0%
same,Mean Percent Weigh Loss of Treated Wood Cubes,[2]; Penflufen Retention 64 g/m^3,1.6%
same,Mean Percent Weigh Loss of Treated Wood Cubes,[2]; Penflufen Retention 80 g/m^3,2.0%
same,Mean Percent Weigh Loss of Treated Wood Cubes,[3]; Penflufen Retention 8 g/m^3,12.0%
same,Mean Percent Weigh Loss of Treated Wood Cubes,[3]; Penflufen Retention 12 g/m^3,10.4%
same,Mean Percent Weigh Loss of Treated Wood Cubes,[3]; Penflufen Retention 16 g/m^3,8.2%
same,Mean Percent Weigh Loss of Treated Wood Cubes,[3]; Penflufen Retention 24 g/m^3,8.2%
same,Mean Percent Weigh Loss of Treated Wood Cubes,[3]; Penflufen Retention 32 g/m^3,5.4%
same,Mean Percent Weigh Loss of Treated Wood Cubes,[3]; Penflufen Retention 48 g/m^3,5.7%
same,Mean Percent Weigh Loss of Treated Wood Cubes,[3]; Penflufen Retention 64 g/m^3,4.4%
same,Mean Percent Weigh Loss of Treated Wood Cubes,[3]; Penflufen Retention 80 g/m^3,3.0%
same,Mean Percent Weigh Loss of Treated Wood Cubes,[4]; Penflufen Retention 8 g/m^3,1.4%
same,Mean Percent Weigh Loss of Treated Wood Cubes,[4]; Penflufen Retention 12 g/m^3,1.6%
same,Mean Percent Weigh Loss of Treated Wood Cubes,[4]; Penflufen Retention 16 g/m^3,1.6%
same,Mean Percent Weigh Loss of Treated Wood Cubes,[4]; Penflufen Retention 24 g/m^3,1.5%
same,Mean Percent Weigh Loss of Treated Wood Cubes,[4]; Penflufen Retention 32 g/m^3,1.1%
same,Mean Percent Weigh Loss of Treated Wood Cubes,[4]; Penflufen Retention 48 g/m^3,1.4%
same,Mean Percent Weigh Loss of Treated Wood Cubes,[4]; Penflufen Retention 64 g/m^3,2.0%
same,Mean Percent Weigh Loss of Treated Wood Cubes,[4]; Penflufen Retention 80 g/m^3,1.3%
same,d50,[5],2 to 3 microns
